Reference: patent publication US20030166531A1, “Methods for modulating an immune response by modulating the interaction between CTLA4 and PP2A” (Genetics Institute, Inc., priority 2001, published 2003)

Columns and labels:
[1] = target: mutant K-less CTLA4 (K152A/K155A/K156A) expressed in doxycycline-induced Jurkat T cells (UniProt P16410); test: cell-based or functional assay
[2] = test system: IL-2 gene transcription; test: Luciferase reporter assay under IL-2 promoter/enhancer in CTLA4-transfected Jurkat T cells stimulated with SEE and APCs; type: cell-based; settings: doxycycline-induced Jurkat cells, TCR-CTLA4 co-ligation with SEE and APCs, at maximal RLU response
Protocol: FIGS. 2A-2B depict the inhibition of IL-2 promoter/enhancer controlled luciferase reporter gene transcription by wild type (FIG. 2A) or K-less (FIG. 2B) CTLA4 molecules. Wild type or K-less CTLA4-transfected T cells were stimulated for 4 hours with antigen presenting cells and increasing concentrations of SEE antigen in the absence (upper data points) or presence (lower data points) of doxycycline (5 μg/ml). Cells were lysed and a luciferase assay was performed.
The panel of Jurkat T cells transfected with a regulatable, doxycycline sensitive CTLA4 cDNA has been previously described (Carreno, B. M. et al. (2000) J. Immunol. 165:1352-1356; Baroja, M. L. et al. (2000) J. Immunol. 164:49-55). A luciferase reporter cDNA under the control of the interleukin-2 promoter and enhancer elements was transfected in these cells, and clones isolated after limiting dilution were used for these experiments. A 0.45 lymphoblastoid B cell line that expresses HLA-DR1 and B7.1 was also used. Both cell lines were cultured under standard conditions.
Doxycycline treated Jurkat T cells (0.25×10^6 cells/group) were stimulated for 4 hours with 0.45 lymphoblastoid B cells (ratio 2:1) preincubated overnight with different concentrations of SEE. Luciferase assays were performed using the Promega Luciferase Assay System (Promega, Madison, Wis.). […]

[3] = accumulates in filter feeding organisms such as shellfish; cited from earlier work

Chain of UniProt P16410 (P16410 36-223, stated change not applied): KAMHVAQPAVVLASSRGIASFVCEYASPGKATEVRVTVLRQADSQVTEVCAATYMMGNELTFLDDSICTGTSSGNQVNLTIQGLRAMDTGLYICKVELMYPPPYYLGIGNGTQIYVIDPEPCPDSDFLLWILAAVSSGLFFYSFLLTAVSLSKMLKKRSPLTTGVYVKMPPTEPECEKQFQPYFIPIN

## endogenous PP2AA (65 kD regulatory subunit of PP2A) of Jurkat T cells (from UniProt P30153 2-589)
[1]
  inhibition of luciferase activity (IL-2 promoter/enhancer reporter) upon TCR-CTLA4 co-ligation: 70 to 80%

## wild type CTLA4: wild type CTLA4 expressed from a doxycycline-regulatable cDNA in transfected Jurkat T cells
[2]
  inhibition of luciferase activity (IL-2 promoter/enhancer reporter): 35-55%

## C=C1[C@@H](O)[C@@H]2O[C@]3(CC[C@H](/C=C/[C@@H](C)[C@@H]4CC(C)=C[C@@]5(O[C@H](C[C@@](C)(O)C(=O)O)CC[C@H]5O)O4)O3)CC[C@H]2O[C@@H]1[C@@H](O)C[C@H](C)[C@H]1O[C@@]2(CCCCO2)CC[C@H]1C [okadaic acid]
[3]
  toxicity when consumed by humans: causes diarrhetic shellfish poisoning
